Data reported in PubChem BioAssay (NCI).
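Results reflect a 48-hour exposure of cells in 96-well plates to compound at five concentrations. TGI marks complete inhibition of growth.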

Key:
Assay in all cases: NCI-60 cell line screen, 48 h
M14 melanoma = tested on: M14 melanoma
OVCAR-5 ovarian = tested on: OVCAR-5 ovarian
HL-60(TB) leukemia = tested on: HL-60(TB) leukemia
OVCAR-8 ovarian = tested on: OVCAR-8 ovarian
HOP-62 NSCLC = tested on: HOP-62 NSCLC
BT-549 breast = tested on: BT-549 breast
NCI-H522 lung = tested on: NCI-H522 lung
SR leukemia = tested on: SR leukemia
SK-MEL-2 melanoma = tested on: SK-MEL-2 melanoma
A549 NSCLC = tested on: A549 NSCLC
SNB-75 CNS = tested on: SNB-75 CNS
T-47D breast = tested on: T-47D breast
HT29 colon = tested on: HT29 colon
TK-10 renal = tested on: TK-10 renal
IGROV1 ovarian = tested on: IGROV1 ovarian
CAKI-1 renal = tested on: CAKI-1 renal
EKVX NSCLC = tested on: EKVX NSCLC
HCT-15 colon = tested on: HCT-15 colon
NCI-H23 lung = tested on: NCI-H23 lung
MDA-N = tested on: MDA-N
SK-OV-3 ovarian = tested on: SK-OV-3 ovarian
HS 578T breast = tested on: HS 578T breast
UO-31 renal = tested on: UO-31 renal
RXF 393 renal = tested on: RXF 393 renal
CCRF-CEM leukemia = tested on: CCRF-CEM leukemia
SK-MEL-28 melanoma = tested on: SK-MEL-28 melanoma
UACC-257 melanoma = tested on: UACC-257 melanoma
HCC-2998 colon = tested on: HCC-2998 colon
ACHN renal = tested on: ACHN renal
U251 CNS = tested on: U251 CNS
786-0 renal = tested on: 786-0 renal
UACC-62 melanoma = tested on: UACC-62 melanoma
DU-145 prostate = tested on: DU-145 prostate
MALME-3M melanoma = tested on: MALME-3M melanoma
SK-MEL-5 melanoma = tested on: SK-MEL-5 melanoma
NCI/ADR-RES ovarian = tested on: NCI/ADR-RES ovarian
MOLT-4 leukemia = tested on: MOLT-4 leukemia
RPMI-8226 leukemia = tested on: RPMI-8226 leukemia
OVCAR-4 ovarian = tested on: OVCAR-4 ovarian
OVCAR-3 ovarian = tested on: OVCAR-3 ovarian
MCF7 breast = tested on: MCF7 breast
SF-295 CNS = tested on: SF-295 CNS
LOX IMVI melanoma = tested on: LOX IMVI melanoma
SN12C renal = tested on: SN12C renal
COLO 205 colon = tested on: COLO 205 colon
SF-539 CNS = tested on: SF-539 CNS
K-562 leukemia = tested on: K-562 leukemia
SW-620 colon = tested on: SW-620 colon
NCI-H460 lung = tested on: NCI-H460 lung
A498 renal = tested on: A498 renal
MDA-MB-435 = tested on: MDA-MB-435
MDA-MB-231 breast = tested on: MDA-MB-231 breast
SNB-19 CNS = tested on: SNB-19 CNS
HOP-92 NSCLC = tested on: HOP-92 NSCLC
HCT-116 colon = tested on: HCT-116 colon
PC-3 prostate = tested on: PC-3 prostate
KM12 colon = tested on: KM12 colon
SF-268 CNS = tested on: SF-268 CNS
NCI-H226 lung = tested on: NCI-H226 lung

Measured: TGI

COC1=CC2(C=CC1=O)CCN=c1c(O)c3c(c(O)c12)=NC=N3 (configuration not stated)
> 100 µM: M14 melanoma | OVCAR-5 ovarian | HL-60(TB) leukemia | OVCAR-8 ovarian | HOP-62 NSCLC | BT-549 breast | NCI-H522 lung | SR leukemia | SK-MEL-2 melanoma | A549 NSCLC | SNB-75 CNS | T-47D breast | HT29 colon | TK-10 renal | IGROV1 ovarian | CAKI-1 renal | EKVX NSCLC | HCT-15 colon | NCI-H23 lung | MDA-N | SK-OV-3 ovarian | HS 578T breast | UO-31 renal | RXF 393 renal | CCRF-CEM leukemia | SK-MEL-28 melanoma | UACC-257 melanoma | HCC-2998 colon | ACHN renal | U251 CNS | 786-0 renal | UACC-62 melanoma | DU-145 prostate | MALME-3M melanoma | SK-MEL-5 melanoma | NCI/ADR-RES ovarian | MOLT-4 leukemia | RPMI-8226 leukemia | OVCAR-4 ovarian | OVCAR-3 ovarian | MCF7 breast | SF-295 CNS | LOX IMVI melanoma | SN12C renal | COLO 205 colon | SF-539 CNS | K-562 leukemia | SW-620 colon | NCI-H460 lung | A498 renal | MDA-MB-435 | MDA-MB-231 breast | SNB-19 CNS | HOP-92 NSCLC | HCT-116 colon | PC-3 prostate | KM12 colon | SF-268 CNS

CCCCC(=C=C1CCCCC1O)C1CCCN1C(=O)OC(C)(C)C (configuration not stated)
35 µM: CCRF-CEM leukemia
29.4 µM: OVCAR-5 ovarian | UACC-257 melanoma | U251 CNS
35.4 µM: BT-549 breast | SW-620 colon
31.7 µM: HOP-62 NSCLC | SN12C renal
35.5 µM: SF-539 CNS
34.6 µM: OVCAR-8 ovarian
32.4 µM: NCI-H23 lung
32.3 µM: HCT-15 colon | LOX IMVI melanoma
23.4 µM: UACC-62 melanoma
31.1 µM: IGROV1 ovarian | SNB-19 CNS
25.5 µM: HL-60(TB) leukemia
31 µM: NCI-H460 lung
30 µM: SK-MEL-2 melanoma | MDA-N | MDA-MB-231 breast
26 µM: HOP-92 NSCLC
41 µM: HS 578T breast
32.6 µM: RPMI-8226 leukemia
36.6 µM: HCC-2998 colon
26.7 µM: SNB-75 CNS
31.2 µM: SK-OV-3 ovarian
29.6 µM: SK-MEL-28 melanoma | 786-0 renal | PC-3 prostate
30.9 µM: M14 melanoma | SK-MEL-5 melanoma
43.8 µM: COLO 205 colon
24.4 µM: CAKI-1 renal
33.5 µM: MOLT-4 leukemia
27.3 µM: HT29 colon | HCT-116 colon
28 µM: SF-295 CNS
28.4 µM: EKVX NSCLC
31.4 µM: DU-145 prostate
29.2 µM: ACHN renal
30.6 µM: NCI/ADR-RES ovarian | MDA-MB-435
29.8 µM: T-47D breast | TK-10 renal
29.3 µM: A549 NSCLC
29.1 µM: OVCAR-3 ovarian
34.8 µM: NCI-H226 lung
31.6 µM: MALME-3M melanoma | MCF7 breast
27.4 µM: OVCAR-4 ovarian
> 100 µM: SR leukemia
27.1 µM: RXF 393 renal
35.8 µM: UO-31 renal
31.5 µM: KM12 colon
32.8 µM: NCI-H522 lung
32.7 µM: SF-268 CNS
34.1 µM: K-562 leukemia

Cn1c(=O)c2[nH]c(N/N=C3/SCC(=O)N3Cc3ccccc3)nc2n(C)c1=O
88.4 µM: 786-0 renal
45.8 µM: MCF7 breast
82.3 µM: SR leukemia
> 100 µM: M14 melanoma | OVCAR-5 ovarian | HL-60(TB) leukemia | OVCAR-8 ovarian | HOP-62 NSCLC | BT-549 breast | NCI-H522 lung | SK-MEL-2 melanoma | A549 NSCLC | NCI-H226 lung | T-47D breast | HT29 colon | TK-10 renal | IGROV1 ovarian | CAKI-1 renal | EKVX NSCLC | HCT-15 colon | NCI-H23 lung | SK-OV-3 ovarian | HS 578T breast | UO-31 renal | RXF 393 renal | SK-MEL-28 melanoma | UACC-257 melanoma | HCC-2998 colon | ACHN renal | U251 CNS | UACC-62 melanoma | DU-145 prostate | MALME-3M melanoma | SK-MEL-5 melanoma | NCI/ADR-RES ovarian | MOLT-4 leukemia | RPMI-8226 leukemia | OVCAR-4 ovarian | OVCAR-3 ovarian | SF-295 CNS | SN12C renal | COLO 205 colon | SF-539 CNS | K-562 leukemia | NCI-H460 lung | A498 renal | MDA-MB-231 breast | SNB-19 CNS | HCT-116 colon | PC-3 prostate | KM12 colon | SF-268 CNS
62.9 µM: CCRF-CEM leukemia
87.7 µM: HOP-92 NSCLC
36.5 µM: MDA-N
50.1 µM: MDA-MB-435
